Source: patent US20210391038A1, “SPECIFICALLY-SHAPED CRYSTAL OF COMPOUND AND METHOD FOR PRODUCING SAME” (TOWA PHARMACEUTICAL CO., LTD., priority 2018, published 2021)

Columns and labels:
Assay type in all cases: physicochemical
[1] = Particle density, true density and particle packing rate; settings: for Particle packing rate: particle density / true density x 100; for Particle packing rate / Particle density: trihydrate
Procedure: “Particle density” in the present description is mass per unit volume when the volume of the substance itself as well as the volume of the open void and the closed void are included as the volume of polycrystalline particles. For example, when the polycrystalline particles are spherical particles, the particle density is calculated by the following formula using the mean mass of the polycrystalline particles and the mean volume of the polycrystalline particles:
Here, the mean mass of polycrystalline particles is calculated by measuring the number of polycrystalline particles contained in 1.0 mg or more, preferably 5.0 mg or more, and more preferably 10.0 mg or more of a sample by a scanner, etc. The mean volume of crystal particles is obtained by averaging the volume calculated by photographing 500 or more, preferably 1,000 or more, and more preferably 5,000 or more crystal particles by a light microscope, etc., using an equivalent circle diameter obtained from the projected area of polycrystalline particles, and assuming that the polycrystalline particles are true spheres. At this time, it is desirable that the distribution of the equivalent circle diameter is unimodal and the sharpness value is less than 1.5.
“Particle packing rate” of a polycrystal in the present description is a value calculated by the following formula:
Particle packing rate (%)=(particle density)/(true density of compound)×100 [Equation 8]
Here, “true density of compound” is a density of a substance itself not including a void. If no void exists at all inside or on the surface of a particle, the particle packing rate is 100%. The true density of a compound can be obtained by dry density measurement by the constant volume expansion method. Examples of the measuring device include a dry automatic densimeter AccuPyc II 1340-10CC manufactured by Shimadzu Corporation.
The particle size distribution was measured in a dry manner using a spray particle size distribution analyzer AEROTRAC LDSA-SPR3500A manufactured by Microtrac Inc. The particle size distribution in Examples 2 and 7 was measured in a dry manner using a laser diffraction particle size distribution measurement MASTERSIZER 3000 manufactured by Malvern Panalytical Ltd. SEM images were measured using a scanning electron microscope JSM-IT100 manufactured by JEOL Ltd. Light microscope images were measured using an upright microscope BX53M manufactured by Olympus Corporation and a microscope digital camera DP74 manufactured by Olympus Corporation. Images for measuring the number of particles were obtained by a scanner GT-X830 manufactured by SEIKO EPSON CORPORATION. The powder X-ray diffraction (XRD) was measured using a desktop X-ray diffraction device MiniFlex300 manufactured by Rigaku Corporation. The specific surface area was measured by the BET fluid process (gas used: pure nitrogen) using a fully automatic specific surface area measuring device Macsorb HM-1208 manufactured by Mountech Co., Ltd. The moisture content was measured using a trace moisture measuring device AQ-2200 manufactured by […] SANGYO Co., Ltd. The dissolution profile was measured using μDISS Profiler manufactured by Pion Inc. Centrifugal classification was performed using a high-efficiency precision forced air classifier Lab Calssiel N-01 manufactured by SEISHIN […] Co., Ltd. Image analysis was performed using image processing software ImageJ developed by the National Institute of Health (NIH). The particle strength was measured using a particle hardness measuring device NEW GRANO manufactured by OKADA SEIKO CO., LTD. The true density was measured using a dry automatic densimeter AccuPyc II 1340-10CC manufactured by Shimadzu Corporation. The purity of a compound was measured by a high performance liquid chromatograph (LC-20A) manufactured by Shimadzu Corporation. […]

[2] = Measurement of critical degree of supersaturation of spherulite; settings: entry 19; solvent 1 EtOH, solvent 2 H2O, solvent 2/solvent 1 ratio 1; crystallization 35 °C
Excerpt: “Supersaturated solution” in the present description means a solution in a state of containing a solute exceeding the solubility. As the degree of supersaturation, “degree of supersaturation” can be used. Regarding the degree of supersaturation, when the concentration (mass concentration (g/g)) of a compound dissolved in a supersaturated solution is defined as C and the solubility of the compound is defined as Cs, the degree of supersaturation S can be represented by the following formula: […]
“Critical degree of supersaturation” in the present description means the lowest degree of supersaturation required to obtain a specifically-shaped crystal. […] The value of a critical degree of supersaturation varies depending on the shape of a crystal. For example, all of values of a critical degree of supersaturation required to obtain a plate crystal, a critical degree of supersaturation required to obtain a needle crystal, and a critical degree of supersaturation required to obtain a spherulite are different. The critical degree of supersaturation required to obtain a spherulite is higher than the critical degree of supersaturation required to obtain a plate crystal or a needle crystal.
The actual measured value of the critical degree of supersaturation (S*) can be measured as follows:
(1) 100 particles are observed by SEM. (2) 5 to 10 particles whose shape is close to a desired specific shape are selected, and the shape is evaluated. In particular, when the desired specific shape is a sphere, the sphericity is evaluated. (3) Based on the evaluation index of the shape, whether the selected particles have the desired specific shape or not is determined. In particular, when the desired specific shape is a sphere, the case where the sphericity is 0.60 or more is determined as a spherulite. (4) The above-mentioned operation is performed for each sample having a different degree of supersaturation during crystallization, and the minimum value of a degree of supersaturation having the specifically-shaped particles is determined as the critical degree of supersaturation. The difference between the maximum value of a degree of supersaturation not having the specifically-shaped particles and the critical degree of supersaturation should be 20% or less.
The critical degree of supersaturation of a spherulite of ketotifen fumarate was determined as follows. To 2.0 g of ketotifen fumarate, 10 mL (5 v/w) of methanol was added, followed by reflux to completely dissolve. This solution was added dropwise to 50 mL of isopropanol at 20° C. to prepare a supersaturated solution of ketotifen fumarate. The degree of supersaturation of the supersaturated solution at the end of dropwise addition was 9.0. The supersaturated solution was crystallized. The crystal was collected by filtration, followed by drying under reduced pressure at 40° C., thus obtaining a crystal of ketotifen fumarate.
Similarly, when a substrate and a solvent different from those mentioned above are used, a plurality of samples having a different degree of supersaturation are prepared and crystallized, and then the critical degree of supersaturation of the spherulite was measured.

[3] = Particle size distribution (d50, sharpness index); set-up: key to sharpness index of the crystal thus obtained / sharpness index of the fine powders: calculated by formula from d10, d50, d90; 1.0 = most uniform particle size; settings: for sharpness index of the crystal thus obtained: calculated from d10, d50, d90; for d50 of the crystal thus obtained: dry particle size distribution, volume based
Excerpt: d10 in the present description is a value obtained from a particle size distribution analyzer, and represents a particle size of a particle corresponding to 10% of accumulation from the smaller particle side in the particle size distribution based on the volume.
d50 in the present description is a value obtained from a particle size distribution analyzer, and represents a particle size of a particle corresponding to 50% of accumulation from the smaller particle side in the particle size distribution based on the volume.
“Sharpness index” in the present description is an index representing the uniformity of a particle size of a particle in a powder, and a sharpness index of 1.0 represents a powder having the most uniform particle size. The closer the sharpness index is to 1.0, the more the particle size of the powder is uniform. Specifically, the sharpness index represents a value calculated using the following formula from the values of d10, d50, and d90 measured by a particle size distribution analyzer:
Images for measuring the number of particles were obtained by a scanner GT-X830 manufactured by SEIKO EPSON CORPORATION. The powder X-ray diffraction (XRD) was measured using a desktop X-ray diffraction device MiniFlex300 manufactured by Rigaku Corporation. […] The particle strength was measured using a particle hardness measuring device NEW GRANO manufactured by OKADA SEIKO CO., LTD. […] The purity of a compound was measured by a high performance liquid chromatograph (LC-20A) manufactured by Shimadzu Corporation.

[4] = Sphericity from SEM images (ImageJ); set-up: key: 1 = true sphere; closer to 1 = more spherical; mean of ≥5 particles; settings: SEM image analysis, mean of particles
Excerpt: In the present description, “spherulite” means a crystal aggregate (polycrystal) which has a radial or concentric thin layered structure and has a spherical outer shape. Whether the crystal obtained by the method of the present invention is a spherulite or not can be determined, for example, by observing the outer shape of the crystal using SEM. For example, it can be discriminated by cutting the crystal aggregate and observing the internal structure thereof using SEM. The sphericity of the spherulite obtained by the method of the present invention is usually 0.60 or more, preferably 0.70 or more, more preferably 0.80 or more, particularly preferably 0.90 or more, and most preferably 0.95 or more. The sphericity can be calculated by the following method.
When an image of particles taken by SEM is analyzed using image processing software ImageJ, a coordinate group representing the position of pixels forming the outline of a particle is obtained. The length of the coordinate group is defined as N, and one pixel coordinate of each outline is defined as p[i] (1≤i≤N). The angle between a straight line l(k) connecting two points p[k] and p[k+N/D] and a straight line m(k) connecting two points p[k+N/D] and p[k+2N/D] is defined as θ(k) (−180°<θ<180°) (1≤k≤N, 1≤D≤N). D corresponds to the number of partitions of the outline. When N/D is not a natural number, the value is defined as the quotient obtained by dividing N by D. By calculating this angle with k=1 to N, N pieces of θ value can be obtained.
When the particle is a true sphere, θ(k) is 360/D, and the closer the particle is to a true sphere, the closer θ(k) is to this value. The error between θ(k) and the true value 360/D is evaluated by the root-mean-square error (RMSE) of the following formula:
Using the RMSE value of when D is 10 (θ(k)=36°), the sphericity is defined by the following formula: […]
The sphericity is 1 in a true sphere, and the closer the particle is to a true sphere, the closer the sphericity is to 1. Meanwhile, the sphericity of an ellipse whose long axis is infinitely long is zero. The sphericity is measured for five or more particles to calculate the mean. This mean is defined as the sphericity of each sample (see FIGS. 42 and 43).

COc1ccc2[n-]c([S@@+]([O-])Cc3ncc(C)c(OC)c3C)nc2c1.COc1ccc2[n-]c([S@@+]([O-])Cc3ncc(C)c(OC)c3C)nc2c1.O.O.O.[Mg+2] [Esomeprazole magnesium trihydrate]
true density [1]: 1.37 g/mL | Critical degree of supersaturation S Experimental value [2]: 1.6

N[C@@H](CCC(=O)N[C@@H](CS)C(=O)NCC(=O)O)C(=O)O [Example 23, glutathione]
sharpness index of the crystal thus obtained [3]: 2.27 | d50 of the crystal thus obtained [3]: 48.4 μm | sphericity of the spherulite [4]: 0.85±0.07

CCCCCCOC(=O)N=C(N)c1ccc(NCc2nc3cc(C(=O)N(CCC(=O)OCC)c4ccccn4)ccc3n2C)cc1 [Example 24, dabigatran etexilate methanesulfonate]
sharpness index of the crystal thus obtained [3]: 2.61 | d50 of the crystal thus obtained [3]: 61.3 μm | sphericity of the spherulite [4]: 0.95±0.03

Cc1cccc(C)c1NC(=O)CC12CCCN1CCC2.Cl [Example 25, pilsicainide hydrochloride anhydride]
sharpness index of the crystal thus obtained [3]: 2.29 | d50 of the crystal thus obtained [3]: 116 μm | sphericity of the spherulite [4]: 0.69±0.18

Cn1c(=O)c2[nH]cnc2n(C)c1=O.O.O.O.O.[Mg] [Example 26, theophylline magnesium salt tetrahydrate]
sharpness index of the crystal thus obtained [3]: 3.06 | d50 of the crystal thus obtained [3]: 43.0 μm | sphericity of the spherulite [4]: 0.95±0.02

Nc1nc(CC(=O)Nc2ccc(CCNC[C@H](O)c3ccccc3)cc2)cs1 [Example 27, mirabegron]
sharpness index of the crystal thus obtained [3]: 1.66 | d50 of the crystal thus obtained [3]: 148 μm | sphericity of the spherulite [4]: 0.98±0.01

O=C(O)CCCN1CCC(O[C@@H](c2ccc(Cl)cc2)c2ccccn2)CC1.O=S(=O)(O)c1ccccc1 [Example 30, bepotastine besilate]
sharpness index of the crystal thus obtained [3]: 2.15 | d50 of the crystal thus obtained [3]: 105 μm | sphericity of the spherulite [4]: 0.98±0.01

COc1ccc2[n-]c([S@@+]([O-])Cc3ncc(C)c(OC)c3C)nc2c1.COc1ccc2[n-]c([S@@+]([O-])Cc3ncc(C)c(OC)c3C)nc2c1.O.O.O.[Mg+2] [Sample 1, esomeprazole magnesium trihydrate]
Particle packing rate [1]: 54% | Particle density [1]: 0.74 g/mL

COc1ccc2[n-]c([S@@+]([O-])Cc3ncc(C)c(OC)c3C)nc2c1.COc1ccc2[n-]c([S@@+]([O-])Cc3ncc(C)c(OC)c3C)nc2c1.O.O.O.[Mg+2] [Sample 2, esomeprazole magnesium trihydrate]
Particle packing rate [1]: 64% | Particle density [1]: 0.87 g/mL

COc1ccc2[n-]c([S@@+]([O-])Cc3ncc(C)c(OC)c3C)nc2c1.COc1ccc2[n-]c([S@@+]([O-])Cc3ncc(C)c(OC)c3C)nc2c1.O.O.O.[Mg+2] [Sample 3, esomeprazole magnesium trihydrate]
Particle packing rate [1]: 88% | Particle density [1]: 1.21 g/mL
